Values after ≈ are worked out from the molar mass of the structure shown.

Data on 2 molecules can be found in ChEMBL document CHEMBL1134492, “Phenanthroindolizidine alkaloids as cytotoxic substances in a Danaid butterfly, Ideopsis similis, against human cancer cells” (J Med Chem, 2001).

Common to all, as to format: functional, cell-based
Holding throughout (conditions): Homo sapiens

Test [1] concerns A549. Kind of test: Inhibitory concentration against A549 (lung cancer) cell line.
Test [2] relates to DLD-1. In words: Inhibitory concentration against DLD-1 (colon cancer) cell line.
In test [3] the test system is HeLa. In words: Inhibitory concentration against HeLa (cervical cancer) cell line.
The subject of test [4] is K562. Kind of test: Inhibitory concentration against K562 (leukemia) cell line.

On to `COc1cc2c3c(c4ccc(O)cc4c2cc1OC)[C@H](O)[C@@H]1CCCN1C3` [TYLOPHORIDICINE E], for which the IC50 was 0.4 ng/mL (≈ 1.09 nM) in test [1], 0.5 ng/mL (≈ 1.37 nM) in test [2], 0.8 ng/mL (≈ 2.19 nM) in test [3] and 0.4 ng/mL (≈ 1.09 nM) in test [4].

Consider `COc1cc2c3c(c4ccc(O)c(OC)c4c2cc1OC)[C@H](O)[C@@H]1CCCN1C3`, for which the IC50 turned out to be 0.5 ng/mL (≈ 1.26 nM) in test [1], 0.8 ng/mL (≈ 2.02 nM) in test [2], 0.1 ng/mL (≈ 0.253 nM) in test [3] and 0.5 ng/mL (≈ 1.26 nM) in test [4].
